Laboratory results reported in patent US8163661B2, “Luminescence measurement system” (Olympus Corporation, priority 2007, dated 2012).
Where two headings read alike, the source gives them in different places.

Legend:
[1] = test system: ELuc (Emerald Luc) luciferase (originating from Hikari Kometsuki); test: Km value of ELuc luciferase relative to D-luciferin and ATP (luminometer, photon count); format: biochemical; conditions: 8 mM MgSO4, 0.1M Tris-HCl pH 8.0
Method: (§1) As for the blank, the buffer described above was employed. FIG. 6 illustrates the ultraviolet/visible light absorption spectrum of […].
(§2) Then, in order to calculate the concentration of ATP, the ultraviolet/visible light absorption spectrum of ATP was measured. In this measurement, the spectrum was measured using a diluted (by 2000 times) solution (in 0.1M Citrate/0.2M Na2HPO4 buffer, pH=7.0) of ATP stock solution (about 100 mM). As for the blank, the buffer described above was employed. FIG. 7 illustrates the ultraviolet/visible light absorption spectrum of ATP.
(§3) (Experiment Method 2: Purification of Various Kinds of Luciferase)
(§4) The purification of luciferase was performed according to the following procedure after establishing a luciferase-purification system utilizing affinity chromatography.
(§5) (Procedure of Transfection of Luciferase Expression Vector to Coli Bacillus)
(§6) First of all, 0.5 μL of luciferase expression vector was introduced into 50 μL of coli bacillus (JM109(DE3)). Then, the resultant liquid was subjected to a thermostatic treatment consisting of ice-cooling for 10 minutes, heating at 42° C. for one minute and ice-cooling for two minutes. Then, 2 μL of the resultant coli bacillus solution was added to 1 mL of an SOC culture medium.
(§7) Subsequently, the resultant solution of coli bacillus/SOC culture medium mixture was subjected to shaking at 37° C. for 20 minutes and to incubation. Then, 100 μL of the resultant solution was streaked onto an LB culture medium plate (Ampicillin 100 μg/mL+) and subjected to incubation overnight at 37° C.
(§8) (Purification of Luciferase by Means of Affinity Chromatography)
(§9) Then, the coli bacillus was fractured to obtain a raw extract, from which luciferase was purified by means of affinity chromatography.
(§10) Namely, first of all, a suspension of coli bacillus was subjected to centrifugal separation at 15000 rpm for 5 minutes to recover the pellets of coli bacillus, which was then suspended in 10 mL of TBS cooled to 4° C. Subsequently, by making use of French Pressure Cell, the fungus body was fractured. The resultant fungus body-fractured liquid was subjected to centrifugal separation (15000 rpm, 10 minutes) to remove settled residues and to recover a supernatant liquid.
(§11) Subsequently, 2 mL of TBS was added to a column having 2 mL of bed volume and subjected to filtration. Then, 500 μL of a Ni-Agar suspension and 2 mL of TBS were added to the column and the TBS was allowed to gravitationally drop (column equilibration). The supernatant liquid thus recovered was added to the column and allowed to gravitationally drop. Incidentally, the operation until the drop of the supernatant liquid was completed was performed inside a refrigerator at a temperature of 4° C. […]

[2] = test system: Yaeyama luciferase (Yaeyama Hime firefly, Luciola filiformis yayeyamana; DNA Sequence No. 1); test: Km value of Yaeyama luciferase relative to D-luciferin and ATP (luminometer, photon count); format: biochemical; conditions: 8 mM MgSO4, 0.1M Tris-HCl pH 8.0
Method: as §1, §2, §3, §4, §5, §6, §7, §8, §9, §10, §11

[3] = target: GL3 luciferase (originating from firefly) (Photinus pyralis, UniProt P08659, K549A/L550V/N119G/N50D/S548I); test: Km value of GL3 luciferase relative to D-luciferin and ATP (luminometer, photon count); format: biochemical; conditions: read-out: Km value of GL3 relative to ATP, 10-1280 μM ATP, 1 mM D-luciferin, 8 mM MgSO4, 0.1M Tris-HCl pH 8.0
GL3 luciferase (originating from firefly), sequence (P08659 whole entry N50D/N119G/S548I/K549A/L550V): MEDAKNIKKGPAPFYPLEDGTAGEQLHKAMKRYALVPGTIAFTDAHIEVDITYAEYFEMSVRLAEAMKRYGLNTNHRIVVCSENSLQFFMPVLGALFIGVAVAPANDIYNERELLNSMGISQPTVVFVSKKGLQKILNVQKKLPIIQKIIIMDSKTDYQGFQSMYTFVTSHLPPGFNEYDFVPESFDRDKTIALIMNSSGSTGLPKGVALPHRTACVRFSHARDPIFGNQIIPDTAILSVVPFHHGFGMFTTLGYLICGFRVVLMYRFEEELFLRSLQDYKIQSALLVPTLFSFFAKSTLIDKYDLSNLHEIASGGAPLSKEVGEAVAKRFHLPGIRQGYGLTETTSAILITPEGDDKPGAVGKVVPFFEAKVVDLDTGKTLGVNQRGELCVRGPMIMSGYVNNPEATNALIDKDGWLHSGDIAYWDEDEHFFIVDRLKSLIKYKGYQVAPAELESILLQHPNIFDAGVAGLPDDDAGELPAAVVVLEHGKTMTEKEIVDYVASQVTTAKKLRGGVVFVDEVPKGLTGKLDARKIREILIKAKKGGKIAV
Method: as §1, §2, §3, §4, §5
as §6, with “medium. […]” for “medium.”

[4] = test system: CBG luciferase (originating from Hikari Kometsuki); test: Km value of CBG luciferase relative to D-luciferin and ATP (luminometer, photon count); format: biochemical; conditions: 8 mM MgSO4, 0.1M Tris-HCl pH 8.0
Method: as §1, §2, §3, §4, §5, §6, §7, §8, §9
(§12) Namely, first of all, a suspension of coli bacillus was subjected to centrifugal separation at 15000 rpm for 5 minutes to recover the pellets of coli bacillus, which was then suspended in 10 mL of TBS cooled to 4° C. Subsequently, by making use of French Pressure Cell, the fungus body was fractured. […]

[5] = test system: CBR luciferase (originating from Hikari Kometsuki); test: Km value of CBR luciferase relative to D-luciferin and ATP (luminometer, photon count); format: biochemical; conditions: 8 mM MgSO4, 0.1M Tris-HCl pH 8.0
Method: as §1, §2, §3, §4, §5, §6, §7, §8, §9, §12

[6] = test system: intercellular ATP; conditions: apoptosis induced by STS; cited from earlier work
[7] = substrate: Nc1ncnc2c1ncn2[C@@H]1O[C@H](COP(=O)(O)OP(=O)(O)OP(=O)(O)O)[C@@H](O)[C@H]1O; test: purified protein, by the assay type; format: biochemical, Luciola cruciata; conditions: 10-1280 μM ATP, 1 mM D-luciferin, 8 mM MgSO4, 0.1M Tris-HCl pH 8.0
Method: as §1, §2
By making use of the absorbency (259 nm, 0.359±0.004, n=10) obtained from the spectrum of FIG. 7, the concentration of the ATP stock solution was calculated (ATP: λmax=259 nm, ε=15400, pH=7.0). As a result of the calculation, the concentration of the ATP stock solution was found as being 46.6 mM. […]
Subsequently, the elute was moved 400 μL by 400 μL to a centrifugal concentration tube (SUPREC™-02, available from TaKaRa Co., Ltd. (exclusion limit molecular weight: 30,000)) and then subjected to centrifugal separation (5000 rpm, 30 minutes) until the elute was concentrated to about 100 μL. Thereafter, the absorbency of the concentrated elute was measured by means of a plate reader and the concentration of luciferase was calculated from the calibration curve which was prepared by making use of BSA. […]

[8] = substrate: O=C(O)[C@H]1CSC(c2nc3ccc(O)cc3s2)=N1; test: purified protein, by the assay type; conditions: 5-640 μM D-luciferin, 4 mM ATP, 8 mM MgSO4, 0.1M Tris-HCl pH 8.0
[9] = Km value of luciferase relative to ATP (luminometer photon count, Example 2); format: biochemical
Method: (Experiment Method 4: Calculation of Km Value of Various Kind of Luciferase Relative to ATP)
Then, a 0.1M Tris-HCl (pH=8.0) solution of 100 μg/ml luciferase was prepared. The ATP solutions having the aforementioned concentrations were respectively aliquoted to a vessel having 96 wells, thus creating wells each containing 50 μl of the ATP solution.
Then, the luciferase solution was connected with a standard pump of luminometer, after which a program was prepared so as to initiate the measurement concurrent with the addition of 50 μl of the luciferase solution to each of the wells.
Subsequently, the program was started to measure the photon-count value at each ATP concentration. Incidentally, the measurement was repeated five times at each concentration of ATP.
Based on the results obtained, Lineweaver-Burk plot and Hanes-Woolf plot were prepared.

[10] = Luminescence pattern measured with a luminometer (time to peak luminescence after addition of luciferin); format: biochemical
Excerpt: Further, with respect to the luminescence pattern obtained from the measurement using a luminometer also, the results obtained from the luciferase originated from Hikari Kometsuki were found different from the results obtained from the firefly-derived luciferase.
Although data are not shown herein, the results obtained from the Luciferase originated from Hikari Kometsuki were found different from the results obtained from the firefly-derived luciferase with respect also to the luminescence pattern obtained from the measurement using a luminometer.

Nc1ncnc2c1ncn2[C@@H]1O[C@H](COP(=O)(O)OP(=O)(O)OP(=O)(O)O)[C@@H](O)[C@H]1O [ATP]
Km ([1]; Hanes-Woolf plot, 10-1280 μM ATP, 1 mM D-luciferin, read-out: Km value of ELuc relative to ATP): 250 µM
Km ([1]; Lineweaver-Burk plot, 10-1280 μM ATP, 1 mM D-luciferin, read-out: Km value of ELuc relative to ATP): 364 µM
Km ([2]; Hanes-Woolf plot, 10-1280 μM ATP, 1 mM D-luciferin, read-out: Km value of Yaeyama relative to ATP): 400 µM
Km ([2]; Lineweaver-Burk plot, 10-1280 μM ATP, 1 mM D-luciferin, read-out: Km value of Yaeyama relative to ATP): 400 µM
Km ([3]; Hanes-Woolf plot): 200 µM
Km ([3]; Lineweaver-Burk plot): 200 µM
Km ([4]; Hanes-Woolf plot, 10-1280 μM ATP, 1 mM D-luciferin, read-out: Km value of CBG relative to ATP): 290 µM
Km ([5]; Hanes-Woolf plot, 10-1280 μM ATP, 1 mM D-luciferin, read-out: Km value of CBR relative to ATP): 130 µM
Km ([5]; Lineweaver-Burk plot, 10-1280 μM ATP, 1 mM D-luciferin, read-out: Km value of CBR relative to ATP): 110 µM

O=C(O)[C@H]1CSC(c2nc3ccc(O)cc3s2)=N1 [D-luciferin]
Km ([1]; read-out: Km value of ELuc relative to D-luciferin, Hanes-Woolf plot, 5-640 μM D-luciferin, 4 mM ATP): 15 µM
Km ([1]; read-out: Km value of ELuc relative to D-luciferin, Lineweaver-Burk plot, 5-640 μM D-luciferin, 4 mM ATP): 15 µM
Km ([2]; read-out: Km value of Yaeyama relative to D-luciferin, Hanes-Woolf plot, 5-640 μM D-luciferin, 4 mM ATP): 100 µM
Km ([2]; read-out: Km value of Yaeyama relative to D-luciferin, Lineweaver-Burk plot, 5-640 μM D-luciferin, 4 mM ATP): 100 µM
Km ([4]; read-out: Km value of CBG relative to D-luciferin, Hanes-Woolf plot, 5-640 μM D-luciferin, 4 mM ATP): 10.5 µM
Km ([4]; read-out: Km value of CBG relative to D-luciferin, Lineweaver-Burk plot, 5-640 μM D-luciferin, 4 mM ATP): 10.5 µM
Km ([5]; read-out: Km value of CBR relative to D-luciferin, Lineweaver-Burk plot, 5-640 μM D-luciferin, 4 mM ATP): 36.4 µM

CN[C@@H]1C[C@H]2O[C@@](C)([C@@H]1OC)n1c3ccccc3c3c4c(c5c6ccccc6n2c5c31)C(=O)NC4 [STS, Staurosporine]
intercellular ATP concentration at the initial stage of apoptosis [6]: caused to increase

B1: Genji luciferase (Genji firefly, Luciola cruciata) (Nipponoluciola cruciata) (protein)
chain: MENMENDENIVVGPKPFYPIEEGSAGTQLRKYMERYAKLGAIAFTNAVTGVDYSYAEYLEKSCCLGKALQNYGLVVDGRIALCSENCEEFFIPVIAGLFIGVGVAPTNEIYTLRELVHSLGISKPTIVFSSKKGLDKVITVQKTVTTIKTIVILDSKVDYRGYQCLDTFIKRNTPPGFQASSFKTVEVDRKEQVALIMNSSGSTGLPKGVQLTHENTVTRFSHARDPIYGNQVSPGTAVLTVVPFHHGFGMFTTLGYLICGFRVVMLTKFDEETFLKTLQDYKCTSVILVPTLFAILNKSELLNKYDLSNLVEIASGGAPLSKEVGEAVARRFNLPGVRQGYGLTETTSAIIITPEGDDKPGASGKVVPLFKAKVIDLDTKKSLGPNRRGEVCVKGPMLMKGYVNNPEATKELIDEEGWLHTGDIGYYDEEKHFFIVDRLKSLIKYKGYQVPPAELESVLLQHPSIFDAGVAGVPDPVAGELPGAVVVLESGKNMTEKEVMDYVASQVSNAKRLRGGVRFVDEVPKGLTGKIDGRAIREILKKPVAKM
Km ([7]; other: Hanes-Woolf plot): 500 µM
Km ([7]; other: Lineweaver-Burk plot): 500 µM
Km ([8]; other: Hanes-Woolf plot): 75.0 µM
Km ([8]; other: Lineweaver-Burk plot): 75.0 µM

B2: Yaeyama: luciferase originated from Yaeyama Hime firefly (Luciola filiformis yayeyamana), DNA sequence of Sequence No. 1 (protein)
chain: MEMEKEENVVYGPQPFYPIEAGSAGIQLHKYMHQYAQLGAIAFSNALTGVDISYQEYFDITCRLAEAMKNYGMTQEGRIALCSENCEEFFIPVVAGLYIGVGVAPTNEIYTLRELNHSLGIAEPTIVFSSRKGLPKVLEVQKNVTCIKTIVILDSKVNFGGYDCVETFIKKNVPSGFQPSSFKPMDVKNRKEHLALLMNSSGSTGLPKGVQITHEGTVTRFSHAKDPIYGNQVSPGTAILTVVPFHHGFGMFTTLGYFACGYRVVMLTKFDEELFLKTLQDYKCTSVILVPTLFGILNKSELIDKFDLSNLTEIASGGAPLAKEVGEAVARRFNLPGIRQGYGLTETTSAFIITPEGDDKPGASGKVVPLFKVKVIDLDTKKTLGVNRRGEICVKGPSLMKGYVRNPEATKEIIDDEGWMHTGDIGYYDEDEHFFIVDRLKSLIKYKGYQVPPAELESVLLQHPNIFDAGVAGVPDPEAGELPGAVVVLEKGKTMTEKQIVEYVNSQVVNHKRLRGGVRFVDEVPKGLTGKIDAKVIREILKKPQSKM
modifications: Luciola filiformis yayeyamana
affinity to ATP as compared with other kinds of luciferase [9]: relatively low in affinity to ATP
time of peak luminescence intensity after the addition of luciferin [10]: 0.5 to 1 s
